From patent publication US9394519B2, “Methods to produce mast cell culture” (Apollonian Biosystems Limited, priority 2011, dated 2016)
Ends that are not written are not given here.

Columns and labels:
human mast cells [1] = test: Inhibition of IgE-dependent degranulation (histamine release in response to anti-IgE); format: cell-based; conditions: IgE-sensitized human mast cells challenged with anti-IgE; FIG. 5
Experimental: Cultured mast cells at week 6, week 9 and week 12 were harvested, counted and seeded into 24-well plates in complete IMDM with 100 ng/ml SCF and 50 ng/ml IL-6. • IgE-dependent activation: Human mast cells were first sensitized by 0.5 μg/ml human myeloma IgE (Merck) in culture medium overnight. Unbound IgE was then removed by washing once with PBS. The cells were then resuspended in full HEPES buffer (FHB: 137 mM NaCl, 5.56 mM glucose, 12 mM HEPES, 2.7 mM KCl, 0.4 mM NaH2PO4 and 1 mM CaCl2 at pH 7.4) supplemented with 0.03% human albumin (HA) (for release of histamine and PGD2) or in IMDM with 10% FBS (for release of IL-8). […] 3.b Histamine Release Histamine released into the reaction buffer and the remaining granular histamine in the pellets were collected and analyzed by using Bran+Luebbe Autoanalyzer (AAIII Autoanalyzer, Bran+Luebbe, Germany) which chemically extracted histamine from the samples as described by Siraganian (Siraganian, R. P. 1974, Analytical Biochemistry 57(2): 383-394). […] For all stimulation studies, histamine released into the supernatant was expressed as a percentage of total cellular histamine content and all histamine release values were corrected for the spontaneous histamine release in buffer alone.

human mast cells [2] = test: Mast cell activation: release of histamine, PGD2 and IL-8 in response to stimuli; format: cell-based; conditions: human mast cells generated in Example 1, cultured 6 weeks or more; FIGS. 1-4
Experimental: To validate that the human mast cell cultures are functionally responsive, the release of histamine, prostaglandin D2 (PGD2) and interleukin-8 (IL-8) in response to stimulations by anti-IgE, aggregated IgG1, Toll-like receptor ligands, Substance P, compound 48/80 and ionophores was measured.
Cultured mast cells at week 6, week 9 and week 12 were harvested, counted and seeded into 24-well plates in complete IMDM with 100 ng/ml SCF and 50 ng/ml IL-6. • IgE-dependent activation: Human mast cells were first sensitized by 0.5 μg/ml human myeloma IgE (Merck) in culture medium overnight. Unbound IgE was then removed by washing once with PBS. […]
Histamine released into the reaction buffer and the remaining granular histamine in the pellets were collected and analyzed by using Bran+Luebbe Autoanalyzer (AAIII Autoanalyzer, Bran+Luebbe, Germany) which chemically extracted histamine from the samples as described by Siraganian (Siraganian, R. P. 1974, Analytical Biochemistry 57(2): 383-394). […] For all stimulation studies, histamine released into the supernatant was expressed as a percentage of total cellular histamine content and all histamine release values were corrected for the spontaneous histamine release in buffer alone. […]

mast cell tryptase = test: Cell-based assay for screening tryptase inhibitors (MCP-1 degradation in medium of anti-IgE-stimulated mast cells); parameters: species or system human; conditions: for Inhibition of the degradation of MCP-1 in the reaction medium: 6-hour reaction medium of anti-IgE-stimulated mast cells incubated with inhibitor at 37° C. for 16 hours, FIG. 7
Experimental: Primary human mast cells with functional phenotype of connective tissue-type mast cells were derived from peripheral blood using the protocol described in Example 1. Cells were stimulated via the high-affinity IgE receptors (FcERI) using an anti-IgE antibody and kept under various conditions (see conditions A to G below) for 6 hours and 16 hours. The supernatants were then collected and the MCP-1 level in the supernatants was determined.

CC(C)(C)NCC(O)c1ccc(O)c(CO)c1 (centres unmarked) [Salbutamol]
Inhibition of IgE-dependent degranulation (histamine release) (human mast cells [1]): can be inhibited

Substance P (RPKPQQFFGLM; ends and bridges not checked; UniProt P20366 58-68, looked up)
Release of histamine, PGD2 and IL-8 in response to stimulation (human mast cells [2]): Release of histamine, PGD2 and IL-8 was observed

CC(C)C[C@H](NC(=O)[C@@H](NC(=O)N[C@@H](Cc1ccccc1)C(=O)O)[C@@H]1CCN=C(N)N1)C(=O)N[C@H](C=O)Cc1ccccc1 [Chymostatin]
Inhibition of the degradation of MCP-1 in the reaction medium (mast cell tryptase): not

NC(=O)[C@@H]1CCCN1C(=O)[C@H](CCCN=C(N)N)NC(=O)c1ccc2ccccc2c1O [APC366]
MCP-1 level relative to condition A (peak MCP-1 level at the 6th hour after stimulation) (mast cell tryptase; inhibitor added at 6th hour, 16 hours at 37° C., FIG. 8): approximate the same

CC(C)C[C@H](NC(=O)[C@@H](O)[C@H](N)Cc1ccccc1)C(=O)O [Bestatin]
Inhibition of the degradation of MCP-1 in the reaction medium (mast cell tryptase): not
